Laboratory results taken from patent US7825226B2, “Glycoprotein synthesis” (The Scripps Research Institute, priority 2002, dated 2010).

Columns and labels:
[1] = test system: Bandeiraea simplicifolia II (BSII); assay: ELISA-like assay of binding of a GlcNAc-specific lectin; settings: 200 ng immobilized protein, absorbance at 405 nm
Protocol: Several additional experiments were performed to further characterize the mutant myoglobin. First, an ELISA-like assay was used to analyze the binding of a GlcNAc-specific lectin, Bandeiraea simplicifolia II (BSII) (see, e.g., S. Ebisu, et al., (1978), Carbohydr. Res. 61:129), to wild-type myoglobin and glyco-myoglobin. See FIG. 6, Panel A. FIG. 6, Panel A illustrates binding of a GlcNAc-specific lectin, Banderiraea simplicifolia II (BSII), to wild-type myoglobin and glycomyoglobin. A405 values are shown for wild-type myoglobin, glycomyoglobin, and negative control (no lectin added). Gly4→Compound A mutant myoglobin (200 ng) and wild type myoglobin (200 ng) were immobilized in microtiter plate wells and subsequently incubated with biotinylated BSII and streptavidin-alkaline phosphatase conjugate. Wells were incubated with p-nitrophenyl phosphate and monitored by measuring the absorbance at 405 nm. The two forms of myoglobin were immobilized in microtiter plate wells and then incubated with biotinylated BSII, streptavidin-alkaline phosphatase conjugate, and p-nitrophenyl phosphate, respectively.
(§1) Expression and characterization of mutant myoglobin. […] Proteins were analyzed by 12% SDS-PAGE and silver-stained. […]

[2] = target: T1, bovine milk galactosyltransferase (Bos taurus, UniProt P08037); assay: on-blot galactosyltransferase labeling with UDP-[H^3]galactose; assay type: biochemical; settings: 1 μg protein on PVD membrane, 24 hours at room temperature
T1 construct: from tissue; host or cells: bovine milk
T1 sequence (P08037 79-402 limits assumed): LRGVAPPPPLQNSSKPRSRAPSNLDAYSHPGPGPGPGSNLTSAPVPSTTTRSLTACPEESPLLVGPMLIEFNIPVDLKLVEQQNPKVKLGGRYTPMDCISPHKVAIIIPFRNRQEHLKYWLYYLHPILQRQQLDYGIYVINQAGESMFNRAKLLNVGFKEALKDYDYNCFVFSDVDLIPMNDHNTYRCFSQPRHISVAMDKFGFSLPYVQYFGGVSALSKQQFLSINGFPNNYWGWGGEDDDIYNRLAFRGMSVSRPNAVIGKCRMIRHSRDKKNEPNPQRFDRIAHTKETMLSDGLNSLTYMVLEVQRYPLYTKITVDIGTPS
Description: We also investigated whether the O-GlcNAc-serine residue in myoglobin could be selectively modified with a galactosyltransferase. Beta-1,4-galactosyltransferase is known to transfer galactose (Gal) from the sugar nucleotide UDP-Gal to the 4 position of an N-acetylglucosamine (GlcNAc) to form Galβ1,4GlcNAc. To determine if the O-glycosylated myoglobin can be modified with UDP-Gal, both wild-type and O-glycosylated myoglobin were resolved by SDS-PAGE and transferred to a PVD membrane. The membrane was then incubated with bovine milk galactosyltransferase and radioactive UDP-[H^3]-galactose at room temperature for 24 hours. See, e.g., K. Kamemura, et al., (2002), J. Biol. Chem. 277:19229. Incorporation of [H^3]-Gal was monitored by exposing the membrane to X-ray film. […] See FIG. 6, Panel B. FIG. 6, Panel B illustrates on-blot galactosyltransferase labeling glycomyoglobin with UDP-[H^3]galactose. Wild type myoglobin (1 μg) and Gly4→Compound A mutant myoglobin (1 μg) were resolved by 12% SDS-PAGE and transferred to a PVD membrane. The membrane was then treated with bovine milk galactosyltransferase (1 U), UDP-[H^3]galactose (0.5 μCi) and calf intestinal alkaline phosphatase (1 U) for 24 hours at room temperature. […]
as §1

[3] = test system: E. coli DH10B cells; assay: growth rate of cells grown with the unnatural amino acid; settings: 1 mM; cells transformed with mutRNACUA^Tyr, LW1RS and Z domain gene (Lys7TAG)
Protocol: E. coli DH10B cells cotransformed with pLEIZ and pBK-LW1RS were grown in minimal media containing 1% glycerol and 0.3 mM leucine (GMML media) with 25 μg/mL kanamycin, 34 μg/mL of chloramphenicol, and 1.0 mM p-acetyl-(±)-phenylalanine.
Cells transformed with the mutRNACUA^Tyr, LW1RS and Z domain gene (Lys7TAG) were grown in the presence of 1 mM p-acetyl-(±)-phenylalanine.

Molecule	lectin binding signal (A405) [1]	incorporation of [H^3]-Gal (X-ray film) [2]	effect on growth rate of cells [3]
wild-type myoglobin: wild-type myoglobin used for comparison	signal equivalent to negative control wells	no detectable signal	
CC(=O)c1ccc(CC(N)C(=O)O)cc1 (racemic) [p-acetyl-(±)-phenylalanine]			did not affect the growth rate of cells
